Laboratory results: article PMC8880098, “Synthesis, Antibacterial Evaluation, and Computational Studies of a Diverse Set of Linezolid Conjugates” (Pharmaceuticals, 2022)
Converted amounts (≈) assume the structure as drawn. Where two headings read alike, the source gives them in different places.

What was measured:
[1] = tested on: Bacillus subtilis ATCC 6633; assay: microbe, parasite or virus in culture; parameters: species or system bacteria; Broth microdilution MIC in Mueller-Hinton broth, absorbance at 620 nm; settings: ATCC6633, 24 h, read-out: Observed MIC, uM (B. subtilis)
Text: (§1) Antibacterial properties of the synthesized compounds (3a–k, 5a–f, 7a–c, 9a–c, 11a–f, 13 and 15) were screened against Gram-positive (Staphylococcus aureus ATCC 6538, Bacillus subtilis ATCC 6633) and Gram-negative (Pseudomonas aeruginosa ATCC 15,692 and Escherichia coli ATCC 47076) bacteria utilizing the standard technique. Linezolid was used as a standard reference/drug in the current study. The tested bacterial strains were obtained from MERCIN Center, Faculty of Agriculture, Ain Shams University, Cairo, Egypt. To determine the antibacterial activity, stock solutions of the tested compounds and standard reference were prepared with up to 100% DMSO and stored at […]. If necessary, the solutions were heated to 40–60 °C before testing to facilitate complete dissolution. Double distilled water was used in all dilutions prepared. […] A microdilution susceptibility test was used for MIC determination (Mueller–Hinton broth in 96-well plates) according to the CLSI (the Clinical and Laboratory Standards Institute, Malvern, PA, USA). The bacterial inoculum was adjusted to approximately 2.5–3 × 10^4 cells/mL in Mueller–Hinton broth and incubated in a ratio of 1:1 with the test derivatives in polystyrene 96-well flat-bottom microplates. Positive growth control (without test derivatives) and negative control (without bacteria) were included. The microplates were placed in an incubator set to 37 °C for 24 h. Absorbance was measured at 620 nm at the end of the incubation period. The cut-off level for follow-up studies was defined as a minimum of 90% inhibition of growth compared to the untreated sample. Experiments were conducted once in triplicate. For selected compounds, minimum inhibitory concentration (MIC) values were determined by dose–response experiments. Experiments were performed at least twice, in triplicate per concentration tested.

[2] = tested on: Staphylococcus aureus ATCC 6538; assay: microbe, parasite or virus in culture; parameters: species or system bacteria; Broth microdilution MIC in Mueller-Hinton broth, absorbance at 620 nm; settings: ATCC6538, 24 h, read-out: Observed MIC, uM (S. aureus)
Text: as §1

[3] = tested on: Pseudomonas aeruginosa ATCC 15692; assay: Antibacterial MIC, microdilution susceptibility test (CLSI); assay type: cell-based
Text: (§2) The synthesized linezolid conjugates (3a–k, 5a–f, 7a–c, 9a–c, 11a–f, 13, and 15) were subjected for antimicrobial properties determination against Gram-positive (Staphylococcus aureus ATCC 6538, Bacillus subtilis ATCC 6633) and Gram-negative (Pseudomonas aeruginosa ATCC 15692, Escherichia coli ATCC 47076) bacteria by the standard technique.
(§3) Antibacterial properties of the synthesized compounds (3a–k, 5a–f, 7a–c, 9a–c, 11a–f, 13 and 15) were screened against Gram-positive (Staphylococcus aureus ATCC 6538, Bacillus subtilis ATCC 6633) and Gram-negative (Pseudomonas aeruginosa ATCC 15,692 and Escherichia coli ATCC 47076) bacteria utilizing the standard technique. Linezolid was used as a standard reference/drug in the current study. The tested bacterial strains were obtained from MERCIN Center, Faculty of Agriculture, Ain Shams University, Cairo, Egypt.
as §1, with “To” for “Antibacterial properties of the synthesized compounds (3a–k, 5a–f, 7a–c, 9a–c, 11a–f, 13 and 15) were screened against Gram-positive (Staphylococcus aureus ATCC 6538, Bacillus subtilis ATCC 6633) and Gram-negative (Pseudomonas aeruginosa ATCC 15,692 and Escherichia coli ATCC 47076) bacteria utilizing the standard technique. Linezolid was used as a standard reference/drug in the current study. The tested bacterial strains were obtained from MERCIN Center, Faculty of Agriculture, Ain Shams University, Cairo, Egypt. To”

[4] = tested on: Bacillus subtilis ATCC 6633; assay: as above; assay type: cell-based; settings: Bacillus subtilis
Text: as §2, §3
as §1, with “To” for “Antibacterial properties of the synthesized compounds (3a–k, 5a–f, 7a–c, 9a–c, 11a–f, 13 and 15) were screened against Gram-positive (Staphylococcus aureus ATCC 6538, Bacillus subtilis ATCC 6633) and Gram-negative (Pseudomonas aeruginosa ATCC 15,692 and Escherichia coli ATCC 47076) bacteria utilizing the standard technique. Linezolid was used as a standard reference/drug in the current study. The tested bacterial strains were obtained from MERCIN Center, Faculty of Agriculture, Ain Shams University, Cairo, Egypt. To”

[5] = tested on: Escherichia coli ATCC 47076; assay: as above; assay type: cell-based
Text: as §2, §3
as §1, with “To” for “Antibacterial properties of the synthesized compounds (3a–k, 5a–f, 7a–c, 9a–c, 11a–f, 13 and 15) were screened against Gram-positive (Staphylococcus aureus ATCC 6538, Bacillus subtilis ATCC 6633) and Gram-negative (Pseudomonas aeruginosa ATCC 15,692 and Escherichia coli ATCC 47076) bacteria utilizing the standard technique. Linezolid was used as a standard reference/drug in the current study. The tested bacterial strains were obtained from MERCIN Center, Faculty of Agriculture, Ain Shams University, Cairo, Egypt. To”

[6] = tested on: Staphylococcus aureus ATCC 6538; assay: as above; assay type: cell-based; settings: Staphylococcus aureus
Text: as §2, §3
as §1, with “To” for “Antibacterial properties of the synthesized compounds (3a–k, 5a–f, 7a–c, 9a–c, 11a–f, 13 and 15) were screened against Gram-positive (Staphylococcus aureus ATCC 6538, Bacillus subtilis ATCC 6633) and Gram-negative (Pseudomonas aeruginosa ATCC 15,692 and Escherichia coli ATCC 47076) bacteria utilizing the standard technique. Linezolid was used as a standard reference/drug in the current study. The tested bacterial strains were obtained from MERCIN Center, Faculty of Agriculture, Ain Shams University, Cairo, Egypt. To”

[7] = ATCC15692, Mueller–Hinton broth, 37 °C, 24 h, read-out: MIC, μg/mL ± SE, P. Aeruginosa (ATCC 15692)
[8] = ATCC15692, value in parentheses, read-out: MIC (μmol), P. Aeruginosa (ATCC 15692) (converted)
[9] = ATCC6633, 24 h, Mueller–Hinton broth, 37 °C, 24 h, read-out: MIC, μg/mL ± SE, B. Subtilis (ATCC 6633)
[10] = ATCC47076, Mueller–Hinton broth, 37 °C, 24 h, read-out: MIC, μg/mL ± SE, E. Coli (ATCC 47076)
[11] = ATCC47076, value in parentheses, read-out: MIC (μmol), E. Coli (ATCC 47076) (converted)
[12] = ATCC6538, 24 h, Mueller–Hinton broth, 37 °C, 24 h, read-out: MIC, μg/mL ± SE, S. Aureus (ATCC 6538)
[13] = ATCC6538, value in parentheses, read-out: MIC (μmol), S. Aureus (ATCC 6538) (converted)

Row | Structure (SMILES) | MIC [1] [µM] | MIC [2] [µM] | melting point [°C] | MIC [3, 7] [µg/mL] | MIC [3, 8] [µM] | MIC [4, 9] [µg/mL] | MIC [5, 10] [µg/mL] | MIC [5, 11] [µM] | MIC [6, 12] [µg/mL] | MIC ([4]; ATCC6633, as quoted in running text, read-out: MIC against B. subtilis) [µM] | MIC ([4]; ATCC6633, value in parentheses, read-out: MIC (μmol), B. Subtilis (ATCC 6633) (converted)) [µM] | MIC ([6]; ATCC6538, as quoted in running text, read-out: MIC against S. aureus) [µM] | MIC [6, 13] [µM] | MIC ([3]; ATCC15692, read-out: MIC against P. aeruginosa) [µM]
1 | O=C(N[C@@H](Cc1ccccc1)C(=O)NC[C@H]1CN(c2ccc(N3CCOCC3)c(F)c2)C(=O)O1)OCc1ccccc1 [Compound 3e, Benzyl ((S)-1-((((S)-3-(3-fluoro-4-morpholinophenyl)-2-oxooxazolidin-5-yl)methyl)amino)-1-oxo-3-phenylpropan-2-yl)carbamate] | 55.5 (≈ 32 µg/mL) | 55.5 (≈ 32 µg/mL) | 120 to 122 | 64 ± 2.1 | 111 | 32 ± 1.9 | 32 ± 1 | 55.5 | 32 ± 2.2 | – | – | – | – | –
2 | CC[C@H](C)[C@H](NC(=O)OC(C)(C)C)C(=O)NC[C@H]1CN(c2ccc(N3CCOCC3)c(F)c2)C(=O)O1 [Compound 3k, Tert-butyl ((2S,3S)-1-((((S)-3-(3-fluoro-4-morpholinophenyl)-2-oxooxazolidin-5-yl)methyl)amino)-3-methyl-1-oxopentan-2-yl)carbamate] | 62.9 (≈ 32 µg/mL) | 62.9 (≈ 32 µg/mL) | – | 32 ± 1.3 | 62.9 | 32 ± 1.3 | 32 ± 2.1 | 62.9 | 32 ± 2.1 | – | – | – | – | –
3 | CNc1ccc(C(=O)NC[C@H]2CN(c3ccc(N4CCOCC4)c(F)c3)C(=O)O2)cc1 [Compound 5e, (S)-N-((3-(3-Fluoro-4-morpholinophenyl)-2-oxooxazolidin-5-yl)methyl)-4-(methylamino) benzamide] | – | – | 195 to 197 | 32 ± 2.2 | 74.7 | 1 ± 0.1 | 32 ± 1.6 | 74.7 | 4 ± 0.2 | 2.33 to 2.5 | 2.33 | 9.34 to 10 | 9.34 | –
4 | O=C(NC[C@H]1CN(c2ccc(N3CCOCC3)c(F)c2)C(=O)O1)c1ccncc1 [Compound 7a, (S)-N-((3-(3-Fluoro-4-morpholinophenyl)-2-oxooxazolidin-5-yl)methyl)isonicotin-amide] | 5 (≈ 2 µg/mL) | – | 198 to 200 | 8 ± 0.1 | 20 | 2 ± 0.2 | 32 ± 0.9 | 79.9 | 8 ± 0.3 | – | – | – | 20 | 20
5 | O=C1O[C@@H](CNCc2ccc(F)cc2)CN1c1ccc(N2CCOCC2)c(F)c1 [Compound 11a, (S)-3-(3-Fluoro-4-morpholinophenyl)-5-[{(4-fluorobenzyl)amino}methyl] oxazolidin-2-one] | 79.3 (≈ 32 µg/mL) | 79.3 (≈ 32 µg/mL) | – | 32 ± 2.2 | 79.3 | 32 ± 1.2 | 32 ± 2.5 | 79.3 | 32 ± 2.7 | – | – | – | – | –
6 | CS(=O)(=O)c1ccc(CNC[C@H]2CN(c3ccc(N4CCOCC4)c(F)c3)C(=O)O2)cc1 [Compound 11b, (S)-3-(3-Fluoro-4-morpholinophenyl)-5-[{(4-(methylsulfonyl)benzyl}amino]methyl) oxazolidin-2-one] | 69 (≈ 32 µg/mL) | 69 (≈ 32 µg/mL) | – | 64 ± 2.8 | 138 | 32 ± 1.4 | 32 ± 1.1 | 69 | 32 ± 1.2 | – | – | – | – | –
7 | O=C1O[C@@H](CNCc2ccc(C(F)(F)F)cc2)CN1c1ccc(N2CCOCC2)c(F)c1 [Compound 11c, (S)-3-(3-Fluoro-4-morpholinophenyl)-5-[{(4-(trifluoromethyl)benzyl}amino]methyl) oxazolidin-2-one] | 35.3 (≈ 16 µg/mL) | 70.6 (≈ 32 µg/mL) | – | 64 ± 1.5 | 141 | 16 ± 0.4 | 32 ± 0.9 | 70.6 | 32 ± 0.8 | – | – | – | – | –
8 | O=C1O[C@@H](CNCc2cccc(Cl)c2)CN1c1ccc(N2CCOCC2)c(F)c1 [Compound 11d, (S)-5-[{(3-Chlorobenzyl)amino}methyl]-3-(3-fluoro-4-morpholinophenyl) oxazolidin-2-one] | 76.2 (≈ 32 µg/mL) | 76.2 (≈ 32 µg/mL) | – | 32 ± 1.7 | 76.2 | 32 ± 1.2 | 32 ± 2.1 | 76.2 | 32 ± 1 | – | – | – | – | –
9 | COc1cc(CNC[C@H]2CN(c3ccc(N4CCOCC4)c(F)c3)C(=O)O2)cc(OC)c1 [Compound 11f, (S)-5-[{(3,5-Dimethoxybenzyl)amino}methyl]-3-(3-fluoro-4-morpholinophenyl) oxazo-lidine-2-one] | 71.8 (≈ 32 µg/mL) | 71.8 (≈ 32 µg/mL) | – | 32 ± 1.9 | 71.8 | 32 ± 0.3 | 32 ± 0.8 | 71.8 | 32 ± 1.7 | – | – | – | – | –
10 | O=C1O[C@@H](CNCCCO[N+](=O)[O-])CN1c1ccc(N2CCOCC2)c(F)c1 [Compound 13, (S)-3-[{(3-(3-Fluoro-4-morpholinophenyl)-2-oxooxazolidin-5-yl)methyl}amino] propyl nitrate] | 80.3 | 80.3 | – | 32 ± 1.5 | 80.3 | 32 ± 0.9 | 32 ± 0.6 | 80.3 | 32 ± 1 | – | – | – | – | –
